Test system: nude rat skin
Test: transdermic passage of pentasaccharide sodium salt by iontophoresis at set intensity through nude rat skin
Format: in vitro ADME
Conditions: for Utilization factor of the active principle: quantity at 22 hours/initial quantity
Experimental: The procedure was carried out in iontophoresis cells with identical structure. Each iontophoresis cell consisted of three coaxial, adjacent cylindrical compartments of 2 cm^2 cross section, namely, in this order, a donor compartment, a receiver compartment and a back electrode compartment, these three compartments each being separated from the next in leaktight fashion by a piece of nude rat skin from the same batch, serving as a skin sample for studying the transdermic diffusion. […] The receiver compartment, with a volume of 10 ml, contained a 9 g/liter solution of NaCl and was agitated using a magnetic bar. The back electrode compartment, with a volume of 0.5 ml, contained a 2% by weight aqueous solution of NaCl. At its end opposite the receiver compartment, the donor compartment was fitted with a negative electrode or cathode consisting of a 15 μm thick film of silver chloridized on one face to contain an AgCl layer corresponding to 2 mAh/cm^2. In the same way as the donor compartment, the back electrode compartment was equipped with a positive electrode or anode (back electrode) consisting of a 15 μm silver film weakly chloridized on the surface (a quantity of AgCl corresponding to 0.1 mAh/cm^2). The chloridized face of each electrode was turned towards the rat skin sample.
The rat skin samples had had the subcutaneous tissues removed and were preserved by freezing at -40° C. until they were fitted in the iontophoresis cell, with the dermal faces turned towards the receiver compartment, after having spent 15 minutes in physiological salt solution.
For each of the tests which were carried out, six identical iontophoresis cells were started up simultaneously. The active exchange surface was 2 cm^2 for each skin sample. […]
At the end of the said period, an aliquot of the medium contained in the receiver compartment was taken, and the quantity of pentasaccharide which had passed through the skin separating the donor and receiver compartments of each cell was determined by assaying. A second sample was taken 22 hours after the start of each experiment, i.e. 17 hours after the end of the electric signal, in order to allow a significant proportion of the quantities of pentasaccharide active principle held in the skin sample to diffuse in the absence of subcutaneous blood circulation.
Five tests 1a to 1e were carried out as follows:
For each of the tests, the average antifactor Xa activity per ml of medium was determined on aliquots taken from the receiver compartments of the six cells, this representing the quantity of pentasaccharide which had diffused into these compartments after the 5 hours of applying the current and 22 hours after the start of each experiment, i.e. 17 hours after the end of the said current.
The assay of the pentasaccharide in the receiver compartment was based on investigating its antifactor Xa activity. […] The calibration curve was established using a "Golden Standard" pentasaccharide solution to which an antifactor Xa activity equal to 13 units per ml was assigned.
The data presented in this table are average results calculated over a series of six identical cells receiving the same quantities of electricity.

[1] = Test 1a: no membrane, 5 mg/cm^2, 1 mAh/cm^2
[2] = Test 1b: no membrane, 1 mg/cm^2, 1 mAh/cm^2
[3] = Test 1c: cellulose acetate/POEG membrane 75 μm, 1 mg/cm^2, 0.9 mAh/cm^2
[4] = Test 1e: PEBAX MV 1074 membrane 50 μm, hydrogel, 0.5 mg/cm^2, 1 mAh/cm^2
[5] = Test 1d (PEBAX MV 1041 membrane) vs Test 1b (no membrane)
[6] = Test 1d: PEBAX MV 1041 membrane 50 μm, 1 mg/cm^2, 1 mAh/cm^2

Question: With O=C(O)C1OC(OC2C(COS(=O)(=O)O)OC(OC3C(C(=O)O)OC(OC4C(COS(=O)(=O)O)OC(O)C(NS(=O)(=O)O)C4O)C(OS(=O)(=O)O)C3O)C(NS(=O)(=O)O)C2OS(=O)(=O)O)C(O)C(O)C1OC1OC(COS(=O)(=O)O)C(O)C(O)C1NS(=O)(=O)O (stereo not drawn) [pentasaccharide] as the molecule, how does the “Quantity of active principle at 5 hours” value (Passive, no current, 5 mg/cm^2) read?
Answer: Its value is 1 μg/cm^2.

Question: What about the “Quantity of active principle at 22 hours” value (Passive, no current, 5 mg/cm^2) of the same molecule?
Answer: Its value is 1.5 μg/cm^2.

Question: What about the “Quantity of active principle per mAh” value (Passive, no current, 5 mg/cm^2) of the same molecule?
Answer: Its value is 1.5 μg/cm^2.

Question: And the “aXa activity/ml at 5 hours” value (Passive, no current, 5 mg/cm^2)?
Answer: The value was 0.2 mL⁻¹.

Question: What about the “aXa activity/ml at 22 hours” value (Passive, no current, 5 mg/cm^2) of the same molecule?
Answer: The value was 0.3 mL⁻¹.

Question: What about the “Utilization factor of the active principle” value (shortened to “Utilization factor”) (Passive, no current, 5 mg/cm^2) of the same molecule?
Answer: The value was 0.03%.

Question: And the “Quantity of active principle at 5 hours” value [1]?
Answer: The value was 115 μg/cm^2.

Question: What about the “Quantity of active principle at 22 hours” value [1] of the same molecule?
Answer: Its value is 150 μg/cm^2.

Question: What about the “Quantity of active principle per mAh” value [1] of the same molecule?
Answer: Its value is 150 μg/cm^2.

Question: And the “aXa activity/ml at 5 hours” value [1]?
Answer: The value was 23 mL⁻¹.

Question: What about the “aXa activity/ml at 22 hours” value [1] of the same molecule?
Answer: The value was 30 mL⁻¹.

Question: And the “Utilization factor” value [1]?
Answer: Its value is 3%.

Question: What about the “Quantity of active principle at 5 hours” value [2] of the same molecule?
Answer: The value was 110 μg/cm^2.

Question: What about the “Quantity of active principle at 22 hours” value [2] of the same molecule?
Answer: The value was 140 μg/cm^2.

Question: What about the “Quantity of active principle per mAh” value [2] of the same molecule?
Answer: Its value is 140 μg/cm^2.

Question: And the “aXa activity/ml at 5 hours” value [2]?
Answer: Its value is 22 mL⁻¹.

Question: And the “aXa activity/ml at 22 hours” value [2]?
Answer: The value was 28 mL⁻¹.

Question: And the “Utilization factor” value [2]?
Answer: Its value is 14%.

Question: And the “Quantity of active principle at 5 hours” value [3]?
Answer: The value was 75 μg/cm^2.

Question: And the “Quantity of active principle at 22 hours” value [3]?
Answer: The value was 110 μg/cm^2.

Question: And the “Quantity of active principle per mAh” value [3]?
Answer: The value was 125 μg/cm^2.

Question: What about the “aXa activity/ml at 5 hours” value [3] of the same molecule?
Answer: Its value is 15 mL⁻¹.

Question: And the “aXa activity/ml at 22 hours” value [3]?
Answer: The value was 20 mL⁻¹.

Question: What about the “Utilization factor” value [3] of the same molecule?
Answer: The value was 11%.

Question: And the “Quantity of active principle at 5 hours” value [4]?
Answer: Its value is 245 μg/cm^2.

Question: What about the “Quantity of active principle at 22 hours” value [4] of the same molecule?
Answer: Its value is 310 μg/cm^2.

Question: What about the “Quantity of active principle per mAh” value [4] of the same molecule?
Answer: Its value is 310 μg/cm^2.

Question: And the “aXa activity/ml at 5 hours” value [4]?
Answer: Its value is 49 mL⁻¹.

Question: What about the “aXa activity/ml at 22 hours” value [4] of the same molecule?
Answer: The value was 62 mL⁻¹.

Question: And the “Utilization factor” value [4]?
Answer: The value was 62%.

Question: What about the “active principle depletion factor of the donor electrode assembly (in words)” value [5] of the same molecule?
Answer: The value was “increased very substantially”.

Question: And the “quantity of active principle administered per unit quantity of electricity (in words)” value [5]?
Answer: Its value is “increased very substantially”.

Question: And the “Quantity of active principle at 5 hours” value [6]?
Answer: The value was 295 μg/cm^2.

Question: And the “Quantity of active principle at 22 hours” value [6]?
Answer: Its value is 390 μg/cm^2.

Question: What about the “Quantity of active principle per mAh” value [6] of the same molecule?
Answer: The value was 390 μg/cm^2.

Question: And the “aXa activity/ml at 5 hours” value [6]?
Answer: The value was 59 mL⁻¹.

Question: What about the “aXa activity/ml at 22 hours” value [6] of the same molecule?
Answer: Its value is 70 mL⁻¹.

Question: And the “Utilization factor” value [6]?
Answer: Its value is 39%.

Question: And the “passive transport of the pentasaccharide (in words)” value (no current)?
Answer: The value was “very low”.
